According to ChEMBL document CHEMBL4507293 (2021):

How the values were obtained:
[1] = system: Proto-oncogene tyrosine-protein kinase receptor Ret (Homo sapiens), P07949 [M918T]; conditions: Compound concentration 100.0 nM
[2] = target: Epidermal growth factor receptor (Homo sapiens) (UniProt P00533); conditions: Compound concentration 100.0 nM
[3] = target: Serine/threonine-protein kinase 32C (Homo sapiens) (UniProt Q86UX6); conditions: Compound concentration 100.0 nM
[4] = target: Mitogen-activated protein kinase kinase kinase kinase 5 (Homo sapiens) (UniProt Q9Y4K4); conditions: Compound concentration 100.0 nM
[5] = target: Muscle, skeletal receptor tyrosine-protein kinase (Homo sapiens) (UniProt O15146); conditions: Compound concentration 100.0 nM
[6] = target: Tyrosine-protein kinase JAK1 (Homo sapiens) (UniProt P23458); conditions: Compound concentration 100.0 nM
[7] = target: Phosphatidylinositol 4-phosphate 5-kinase type-1 gamma (Homo sapiens) (UniProt O60331); conditions: Compound concentration 100.0 nM
[8] = target: Calcium/calmodulin-dependent protein kinase type II subunit alpha (Homo sapiens) (UniProt Q9UQM7); conditions: Compound concentration 100.0 nM
Chain of Calcium/calmodulin-dependent protein kinase type II subunit alpha (Homo sapiens) (Q9UQM7 whole entry): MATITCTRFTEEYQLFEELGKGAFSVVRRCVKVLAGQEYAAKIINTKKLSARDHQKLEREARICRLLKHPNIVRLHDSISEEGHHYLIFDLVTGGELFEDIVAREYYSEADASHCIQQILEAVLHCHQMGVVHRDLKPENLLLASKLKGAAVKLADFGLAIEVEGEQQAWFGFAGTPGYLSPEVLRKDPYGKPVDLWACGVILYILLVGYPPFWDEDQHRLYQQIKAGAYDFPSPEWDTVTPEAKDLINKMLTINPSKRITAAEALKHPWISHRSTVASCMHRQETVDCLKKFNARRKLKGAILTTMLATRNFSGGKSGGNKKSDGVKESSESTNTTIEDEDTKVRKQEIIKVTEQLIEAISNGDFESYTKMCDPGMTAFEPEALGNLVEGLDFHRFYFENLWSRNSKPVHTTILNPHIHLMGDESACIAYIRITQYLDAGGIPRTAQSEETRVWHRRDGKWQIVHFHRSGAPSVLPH

[9] = target: Serine/threonine-protein kinase WNK2 (Homo sapiens) (UniProt Q9Y3S1); conditions: Compound concentration 100.0 nM
Chain of Serine/threonine-protein kinase WNK2 (Homo sapiens) (Q9Y3S1 whole entry): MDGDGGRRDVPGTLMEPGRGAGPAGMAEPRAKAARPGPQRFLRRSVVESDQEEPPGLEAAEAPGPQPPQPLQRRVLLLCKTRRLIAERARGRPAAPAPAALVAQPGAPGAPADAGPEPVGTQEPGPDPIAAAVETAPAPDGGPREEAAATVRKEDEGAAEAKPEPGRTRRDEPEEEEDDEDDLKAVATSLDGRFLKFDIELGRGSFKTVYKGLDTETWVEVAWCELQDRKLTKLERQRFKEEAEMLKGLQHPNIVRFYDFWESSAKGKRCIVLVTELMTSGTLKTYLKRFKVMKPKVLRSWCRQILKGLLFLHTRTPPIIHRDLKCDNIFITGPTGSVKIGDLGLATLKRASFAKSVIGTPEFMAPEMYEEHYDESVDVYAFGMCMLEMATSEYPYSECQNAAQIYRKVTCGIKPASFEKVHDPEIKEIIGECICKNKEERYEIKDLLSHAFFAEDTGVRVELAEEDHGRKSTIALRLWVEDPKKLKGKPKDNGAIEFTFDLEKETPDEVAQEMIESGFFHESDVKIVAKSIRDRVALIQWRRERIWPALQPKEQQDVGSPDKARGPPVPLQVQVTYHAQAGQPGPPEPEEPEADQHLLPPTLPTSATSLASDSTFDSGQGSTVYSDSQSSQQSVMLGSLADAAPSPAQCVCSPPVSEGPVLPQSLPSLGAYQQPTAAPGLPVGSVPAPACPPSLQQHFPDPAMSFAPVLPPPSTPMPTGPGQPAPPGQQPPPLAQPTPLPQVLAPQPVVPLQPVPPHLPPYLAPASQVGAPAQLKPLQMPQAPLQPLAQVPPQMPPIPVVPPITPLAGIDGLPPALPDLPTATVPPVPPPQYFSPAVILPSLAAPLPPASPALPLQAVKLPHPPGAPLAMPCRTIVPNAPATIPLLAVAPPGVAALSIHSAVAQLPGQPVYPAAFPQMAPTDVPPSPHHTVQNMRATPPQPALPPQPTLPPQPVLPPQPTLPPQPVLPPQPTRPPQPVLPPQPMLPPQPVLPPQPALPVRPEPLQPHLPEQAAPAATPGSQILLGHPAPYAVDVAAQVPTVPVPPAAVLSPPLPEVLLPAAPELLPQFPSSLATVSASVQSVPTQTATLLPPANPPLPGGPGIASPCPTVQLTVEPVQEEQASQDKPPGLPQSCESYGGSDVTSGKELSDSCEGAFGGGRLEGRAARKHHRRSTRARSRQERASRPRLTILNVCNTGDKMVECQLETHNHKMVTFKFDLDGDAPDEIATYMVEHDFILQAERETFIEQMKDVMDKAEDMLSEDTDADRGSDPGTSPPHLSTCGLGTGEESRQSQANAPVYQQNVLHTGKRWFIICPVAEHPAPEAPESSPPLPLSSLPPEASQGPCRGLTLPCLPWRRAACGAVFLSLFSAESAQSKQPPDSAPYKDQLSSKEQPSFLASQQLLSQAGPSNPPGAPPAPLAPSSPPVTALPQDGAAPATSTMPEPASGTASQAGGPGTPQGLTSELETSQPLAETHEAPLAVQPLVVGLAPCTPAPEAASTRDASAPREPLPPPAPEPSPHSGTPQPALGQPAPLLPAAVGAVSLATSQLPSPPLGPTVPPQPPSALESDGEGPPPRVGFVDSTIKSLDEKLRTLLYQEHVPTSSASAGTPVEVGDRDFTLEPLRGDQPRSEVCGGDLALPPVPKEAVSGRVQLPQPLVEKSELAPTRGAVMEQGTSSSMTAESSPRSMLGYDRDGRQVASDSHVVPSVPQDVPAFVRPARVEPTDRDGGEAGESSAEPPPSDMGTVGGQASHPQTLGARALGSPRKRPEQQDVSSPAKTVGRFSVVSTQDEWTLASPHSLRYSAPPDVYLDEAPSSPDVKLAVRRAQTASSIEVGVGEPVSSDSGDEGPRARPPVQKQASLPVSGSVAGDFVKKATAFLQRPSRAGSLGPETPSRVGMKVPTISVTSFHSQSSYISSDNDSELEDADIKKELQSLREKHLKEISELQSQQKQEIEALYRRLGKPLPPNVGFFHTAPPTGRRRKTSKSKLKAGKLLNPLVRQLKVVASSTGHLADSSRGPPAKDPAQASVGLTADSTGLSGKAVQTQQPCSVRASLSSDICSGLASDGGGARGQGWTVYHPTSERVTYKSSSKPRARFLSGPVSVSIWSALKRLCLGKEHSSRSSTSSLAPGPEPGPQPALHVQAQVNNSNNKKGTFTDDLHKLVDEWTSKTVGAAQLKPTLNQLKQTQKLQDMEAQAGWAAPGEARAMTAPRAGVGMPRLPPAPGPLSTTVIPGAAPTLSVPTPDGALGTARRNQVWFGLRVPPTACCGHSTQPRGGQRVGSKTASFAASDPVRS

[10] = target: Serine/threonine-protein kinase 35 (Homo sapiens) (UniProt Q8TDR2); conditions: Compound concentration 100.0 nM
[11] = target: Serine/threonine-protein kinase Nek1 (Homo sapiens) (UniProt Q96PY6); conditions: Compound concentration 100.0 nM
[12] = target: Dual specificity testis-specific protein kinase 1 (Homo sapiens) (UniProt Q15569); conditions: Compound concentration 100.0 nM
[13] = target: BDNF/NT-3 growth factors receptor (Homo sapiens) (UniProt Q16620); conditions: Compound concentration 100.0 nM
[14] = target: Ephrin type-B receptor 6 (Homo sapiens) (UniProt O15197); conditions: Compound concentration 100.0 nM
Chain of Ephrin type-B receptor 6 (Homo sapiens) (O15197 whole entry): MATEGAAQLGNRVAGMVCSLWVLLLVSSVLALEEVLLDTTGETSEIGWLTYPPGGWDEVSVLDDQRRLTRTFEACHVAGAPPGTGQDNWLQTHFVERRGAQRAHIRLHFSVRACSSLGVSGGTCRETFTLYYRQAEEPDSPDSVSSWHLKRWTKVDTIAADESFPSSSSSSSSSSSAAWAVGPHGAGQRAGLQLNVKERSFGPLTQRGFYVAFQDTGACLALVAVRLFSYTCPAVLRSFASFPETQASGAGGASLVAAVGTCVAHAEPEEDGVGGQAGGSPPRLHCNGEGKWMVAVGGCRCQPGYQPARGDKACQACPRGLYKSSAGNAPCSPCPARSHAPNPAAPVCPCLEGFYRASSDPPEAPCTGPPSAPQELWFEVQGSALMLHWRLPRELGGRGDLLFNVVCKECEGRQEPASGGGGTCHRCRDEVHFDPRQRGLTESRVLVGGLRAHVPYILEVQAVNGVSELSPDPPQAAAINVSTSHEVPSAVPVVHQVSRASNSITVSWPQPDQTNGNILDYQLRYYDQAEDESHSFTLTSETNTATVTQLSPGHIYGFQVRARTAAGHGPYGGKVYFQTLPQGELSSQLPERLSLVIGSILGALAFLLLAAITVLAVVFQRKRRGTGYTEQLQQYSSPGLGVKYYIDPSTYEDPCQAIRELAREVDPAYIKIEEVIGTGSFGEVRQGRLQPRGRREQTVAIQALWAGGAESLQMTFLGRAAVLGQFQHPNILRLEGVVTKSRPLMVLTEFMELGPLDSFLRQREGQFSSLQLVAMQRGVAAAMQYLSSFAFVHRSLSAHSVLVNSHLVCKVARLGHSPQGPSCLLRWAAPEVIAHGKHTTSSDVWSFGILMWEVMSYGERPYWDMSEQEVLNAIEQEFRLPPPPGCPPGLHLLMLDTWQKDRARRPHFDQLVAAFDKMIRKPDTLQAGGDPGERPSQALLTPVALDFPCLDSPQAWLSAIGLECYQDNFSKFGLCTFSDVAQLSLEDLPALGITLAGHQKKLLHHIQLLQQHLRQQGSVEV

[15] = target: 5-hydroxytryptamine receptor 2A (Homo sapiens) (UniProt P28223); conditions: Compound concentration 10.0 uM
[16] = target: T1, 5-hydroxytryptamine receptor 1A (Homo sapiens) (UniProt P08908); conditions: Compound concentration 10.0 uM
T1 sequence (whole entry): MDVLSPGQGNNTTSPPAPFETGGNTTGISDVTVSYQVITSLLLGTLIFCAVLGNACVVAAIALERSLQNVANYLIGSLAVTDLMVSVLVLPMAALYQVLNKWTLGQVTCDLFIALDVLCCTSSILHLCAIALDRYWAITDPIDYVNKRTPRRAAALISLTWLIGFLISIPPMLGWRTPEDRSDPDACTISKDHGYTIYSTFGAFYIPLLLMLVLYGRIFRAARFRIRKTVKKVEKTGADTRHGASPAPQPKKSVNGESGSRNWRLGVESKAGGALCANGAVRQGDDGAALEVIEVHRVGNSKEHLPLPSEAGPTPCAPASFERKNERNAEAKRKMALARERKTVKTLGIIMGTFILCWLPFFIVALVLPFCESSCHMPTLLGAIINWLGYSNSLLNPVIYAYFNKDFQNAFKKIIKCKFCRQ

[17] = target: Mast/stem cell growth factor receptor Kit (Homo sapiens) (UniProt P10721); conditions: Compound concentration 100.0 nM
[18] = target: Histamine H3 receptor (Homo sapiens) (UniProt Q9Y5N1); conditions: Compound concentration 10.0 uM
[19] = target: Tyrosine-protein kinase Fgr (Homo sapiens) (UniProt P09769); conditions: Compound concentration 100.0 nM
[20] = target: Phosphorylase b kinase gamma catalytic chain, skeletal muscle/heart isoform (Homo sapiens) (UniProt Q16816); conditions: Compound concentration 100.0 nM
[21] = target: Calcium-dependent protein kinase 1 (Plasmodium falciparum) (UniProt P62344); conditions: Compound concentration 100.0 nM
[22] = target: Mitogen-activated protein kinase 9 (Homo sapiens) (UniProt P45984); conditions: Compound concentration 100.0 nM
[23] = target: Ephrin type-B receptor 2 (Homo sapiens) (UniProt P29323); conditions: Compound concentration 100.0 nM
[24] = target: 5-hydroxytryptamine receptor 1E (Homo sapiens) (UniProt P28566); conditions: Compound concentration 10.0 uM
Chain of 5-hydroxytryptamine receptor 1E (Homo sapiens) (P28566 whole entry): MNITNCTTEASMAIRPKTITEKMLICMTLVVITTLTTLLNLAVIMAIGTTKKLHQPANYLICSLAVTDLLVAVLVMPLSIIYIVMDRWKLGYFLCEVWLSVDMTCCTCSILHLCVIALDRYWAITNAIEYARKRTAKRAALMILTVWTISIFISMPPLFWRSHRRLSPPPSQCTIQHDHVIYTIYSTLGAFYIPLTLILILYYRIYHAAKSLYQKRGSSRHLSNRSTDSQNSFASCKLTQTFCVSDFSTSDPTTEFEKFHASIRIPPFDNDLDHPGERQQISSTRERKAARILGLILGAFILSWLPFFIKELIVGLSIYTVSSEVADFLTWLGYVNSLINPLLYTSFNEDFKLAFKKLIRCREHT

[25] = target: Serine/threonine-protein kinase PAK 4 (Homo sapiens) (UniProt O96013); conditions: Compound concentration 100.0 nM
[26] = target: Serine/threonine-protein kinase 38-like (Homo sapiens) (UniProt Q9Y2H1); conditions: Compound concentration 100.0 nM
[27] = target: Serine/threonine-protein kinase 26 (Homo sapiens) (UniProt Q9P289); conditions: Compound concentration 100.0 nM
Chain of Serine/threonine-protein kinase 26 (Homo sapiens) (Q9P289 2-416 limits assumed): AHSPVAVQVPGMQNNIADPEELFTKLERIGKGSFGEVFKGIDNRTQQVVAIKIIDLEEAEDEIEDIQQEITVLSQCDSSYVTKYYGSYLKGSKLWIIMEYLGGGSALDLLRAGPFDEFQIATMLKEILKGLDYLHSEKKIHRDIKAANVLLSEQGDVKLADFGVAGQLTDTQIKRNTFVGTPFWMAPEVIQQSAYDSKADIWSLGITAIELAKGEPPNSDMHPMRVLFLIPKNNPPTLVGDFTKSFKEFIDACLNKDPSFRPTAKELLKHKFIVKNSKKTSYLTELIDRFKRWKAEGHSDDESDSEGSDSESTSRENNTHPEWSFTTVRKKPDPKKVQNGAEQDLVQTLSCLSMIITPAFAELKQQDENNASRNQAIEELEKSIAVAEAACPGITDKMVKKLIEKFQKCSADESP

[28] = system: Tyrosine-protein kinase ABL1 (Homo sapiens), P00519 [T315I]; conditions: Compound concentration 100.0 nM
[29] = target: Membrane-associated tyrosine- and threonine-specific cdc2-inhibitory kinase (Homo sapiens) (UniProt Q99640); conditions: Compound concentration 100.0 nM
Chain of Membrane-associated tyrosine- and threonine-specific cdc2-inhibitory kinase (Homo sapiens) (Q99640 whole entry): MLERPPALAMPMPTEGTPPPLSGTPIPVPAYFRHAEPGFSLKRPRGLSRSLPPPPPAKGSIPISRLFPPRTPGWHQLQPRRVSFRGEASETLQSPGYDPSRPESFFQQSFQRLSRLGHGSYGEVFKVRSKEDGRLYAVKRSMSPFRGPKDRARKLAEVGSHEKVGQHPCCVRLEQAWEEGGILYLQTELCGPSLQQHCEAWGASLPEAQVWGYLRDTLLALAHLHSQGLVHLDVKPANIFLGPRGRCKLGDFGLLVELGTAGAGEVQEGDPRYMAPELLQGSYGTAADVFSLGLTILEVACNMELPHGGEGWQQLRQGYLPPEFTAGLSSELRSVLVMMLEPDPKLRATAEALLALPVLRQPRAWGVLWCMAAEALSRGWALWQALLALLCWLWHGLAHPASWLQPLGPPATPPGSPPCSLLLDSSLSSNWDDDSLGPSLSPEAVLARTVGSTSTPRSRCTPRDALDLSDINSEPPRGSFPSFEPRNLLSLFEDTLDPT

[30] = target: Mitogen-activated protein kinase kinase kinase 1 (Homo sapiens) (UniProt Q13233); conditions: Compound concentration 100.0 nM
[31] = target: Cyclin-dependent kinase 15 (Homo sapiens) (UniProt Q96Q40); conditions: Compound concentration 100.0 nM
[32] = target: Serine/threonine-protein kinase Nek3 (Homo sapiens) (UniProt P51956); conditions: Compound concentration 100.0 nM
[33] = system: Tyrosine-protein kinase ABL1 (Homo sapiens), P00519 [M351T]; conditions: Compound concentration 100.0 nM
[34] = target: Atypical kinase COQ8A, mitochondrial (Homo sapiens) (UniProt Q8NI60); conditions: Compound concentration 100.0 nM
[35] = target: NUAK family SNF1-like kinase 1 (Homo sapiens) (UniProt O60285); conditions: Compound concentration 100.0 nM
[36] = target: Serine/threonine-protein kinase ULK2 (Homo sapiens) (UniProt Q8IYT8); conditions: Compound concentration 100.0 nM
[37] = system: Tyrosine-protein kinase ABL1 (Homo sapiens), P00519 [T315I]; conditions: Compound concentration 100.0 nM; remark: listed apart in the source
[38] = system: Epidermal growth factor receptor (Homo sapiens), P00533 [G719C]; conditions: Compound concentration 100.0 nM
[39] = system: Epidermal growth factor receptor (Homo sapiens), P00533 [G719S]; conditions: Compound concentration 100.0 nM

CC(C)CC(=O)N1CCc2nc(-c3ccc(Br)cc3)nc(N(C)Cc3ccccc3)c2C1 [THPP-1-NC]
inactive: residual activity [1] 100% | residual activity [2] 100% | residual activity [3] 98% | residual activity [4] 93% | residual activity [5] 100% | residual activity [6] 71% | residual activity [7] 85% | residual activity [8] 100% | residual activity [9] 100% | residual activity [10] 96% | residual activity [11] 100% | residual activity [12] 100% | residual activity [13] 100% | residual activity [14] 91% | inhibition [15] 3% | inhibition [16] -0.56% | residual activity [17] 100% | inhibition [18] 18.3% | residual activity [19] 99% | residual activity [20] 100% | residual activity [21] 100% | residual activity [22] 72% | residual activity [23] 80% | inhibition [24] -5.76% | residual activity [25] 100% | residual activity [26] 95% | residual activity [27] 100% | residual activity [28] 100% | residual activity [29] 92% | residual activity [30] 100% | residual activity [31] 100% | residual activity [32] 100% | residual activity [33] 100% | residual activity [34] 100% | residual activity [35] 100% | residual activity [36] 89% | residual activity [37] 100% | residual activity [38] 100% | residual activity [39] 100%

COCCOc1nc(-c2ccc(Cl)nc2)nc2c1CN(C(=O)c1ncn3ccccc13)CC2 [THPP-1]
inactive: residual activity [1] 90% | residual activity [2] 88% | residual activity [3] 100% | residual activity [4] 91% | residual activity [5] 100% | residual activity [6] 76% | residual activity [7] 67% | residual activity [8] 100% | residual activity [9] 100% | residual activity [10] 100% | residual activity [11] 100% | residual activity [12] 100% | residual activity [13] 100% | residual activity [14] 78% | inhibition [15] -1.4% | inhibition [16] -0.41% | residual activity [17] 100% | inhibition [18] 5.45% | residual activity [19] 100% | residual activity [20] 100% | residual activity [21] 100% | residual activity [22] 76% | residual activity [23] 79% | inhibition [24] 6.95% | residual activity [25] 100% | residual activity [26] 100% | residual activity [27] 100% | residual activity [28] 100% | residual activity [29] 100% | residual activity [30] 100% | residual activity [31] 100% | residual activity [32] 100% | residual activity [33] 100% | residual activity [34] 100% | residual activity [35] 100% | residual activity [36] 100% | residual activity [37] 75% | residual activity [38] 85% | residual activity [39] 97%
